What is called IC50 is the concentration needed to halve the response being measured. One may read the half-life as how long it takes for the measured level to halve. In general, Cmax refers to the maximum level reached in the sampled fluid or tissue.

The values that follow come from ChEMBL document CHEMBL5154928, “Structure-Aided Design, Synthesis, and Biological Evaluation of Potent and Selective Non-Nucleoside Inhibitors Targeting Protein Arginine Methyltransferase 5” (J Med Chem, 2022).

Bounds are passed on as bounds.

A short description of data set [1]: Metabolic stability in mouse liver microsomes assessed as clearance measured up to 60 mins in presence of NADPH by LC-MS/MS analysis. It counts as ADME, Microsome. Conditions: 1 h.
The target in data set [2] is Protein arginine N-methyltransferase 5 (Homo sapiens, UniProt O14744). Description: Inhibition of PRMT5 (unknown origin) using histone H4 (1 to 21 residues) peptide/SAM as substrate incubated for 210 mins in presence of SAM by AlphaLISA assay. A general note: Bead proximity is the source of the signal in Alpha formats.
Chain of Protein arginine N-methyltransferase 5 (O14744 whole entry, the tested form may be a part): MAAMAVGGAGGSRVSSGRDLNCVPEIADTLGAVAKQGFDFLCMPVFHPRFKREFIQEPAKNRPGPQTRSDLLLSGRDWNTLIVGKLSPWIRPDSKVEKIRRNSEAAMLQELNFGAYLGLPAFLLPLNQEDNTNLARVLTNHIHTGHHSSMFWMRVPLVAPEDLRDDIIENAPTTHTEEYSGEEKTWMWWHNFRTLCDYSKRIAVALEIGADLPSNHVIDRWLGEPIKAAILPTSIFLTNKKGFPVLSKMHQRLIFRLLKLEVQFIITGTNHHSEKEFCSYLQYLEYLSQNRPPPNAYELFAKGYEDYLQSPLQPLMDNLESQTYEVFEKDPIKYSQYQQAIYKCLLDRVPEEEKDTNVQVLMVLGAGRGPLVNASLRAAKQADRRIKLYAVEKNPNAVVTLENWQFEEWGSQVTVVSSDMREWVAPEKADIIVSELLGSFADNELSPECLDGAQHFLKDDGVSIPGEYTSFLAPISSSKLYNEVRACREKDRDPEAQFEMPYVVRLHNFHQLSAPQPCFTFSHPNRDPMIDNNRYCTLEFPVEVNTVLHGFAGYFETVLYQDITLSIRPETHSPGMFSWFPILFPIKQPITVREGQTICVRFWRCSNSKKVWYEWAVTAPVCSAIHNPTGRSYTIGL
The nature of data set [3]: Metabolic stability in mouse liver microsomes assessed as half life measured up to 60 mins in presence of NADPH by LC-MS/MS analysis. It counts as ADME, Microsome. Background: Liver microsomes are a subcellular fraction often used to study metabolism.
The test system of data set [4] is A-375. Description: Induction of apoptosis in human A-375 cells assessed as total apoptotic cells at 1 uM incubated for 48 hrs by Annexin-V FITC/PI staining based flow cytometry analysis relative to control. The class given is functional. On the technique in general: Flow cytometry measures light scatter and fluorescence of single cells or particles in a stream.

Data set [5] addresses Histone-lysine N-methyltransferase 2A (Homo sapiens, UniProt Q03164). Description: Inhibition of MLL1 (unknown origin) using peptide substrate preincubated for 10 mins followed by substrate addition for 4 hrs by HTRF assay.
Data set [6] in a line: Metabolic stability in rat liver microsomes assessed as clearance measured up to 60 mins in presence of NADPH by LC-MS/MS analysis. Conditions: 1 h. The class given is ADME, Microsome.
Data set [7] is described as follows: AUC (0 to infinity) in Sprague-Dawley rat at 10 mg/kg, po measured for 0.25 to 24 hrs by LC-MS/MS analysis. It counts as ADME, organism-based. The arrangement: dose 10 mg/kg, time upper 24 hrs, time lower 0.25 hrs, route po. Conditions: in vivo.
Data set [8] can be described thus: Cmax in Sprague-Dawley rat at 10 mg/kg, po measured for 0.25 to 24 hrs by LC-MS/MS analysis. The class given is ADME, organism-based. The arrangement: time lower 0.25 hrs, dose 10 mg/kg, time upper 24 hrs, route po. Conditions: in vivo.
A short description of data set [9]: Metabolic stability in human liver microsomes assessed as half life incubated for 10 mins measured up to 60 mins in presence of NADPH by LC-MS/MS analysis. The class given is ADME, Microsome.
The nature of data set [10]: Plasma protein binding in mouse by LC-MS/MS analysis. It counts as ADME, cell-free. Conditions: read-out: PPB (converted).
Data set [11] in a line: Half life in Sprague-Dawley rat at 10 mg/kg, po measured for 0.25 to 24 hrs by LC-MS/MS analysis. It counts as ADME, organism-based. Conditions: in vivo, time 0.25-24 hrs.
Data set [12] in a line: Plasma protein binding in rat by LC-MS/MS analysis. The class given is ADME, cell-free. Conditions: read-out: PPB (converted).
Data set [13] relates to A-375. Description: Induction of apoptosis in human A-375 cells assessed as total apoptotic cells at 0.5 uM incubated for 48 hrs by Annexin-V FITC/PI staining based flow cytometry analysis relative to control. It counts as functional.
The nature of data set [14]: Metabolic stability in rat liver microsomes assessed as half life measured up to 60 mins in presence of NADPH by LC-MS/MS analysis. The class given is ADME, Microsome.
The subject of data set [15] is A-375. Description: Antitumor activity against human A-375 cells xenografted in BALB/c mouse assessed as tumor growth inhibition at 75 mg/kg, po qd for 19 days and measured every 3 days. It counts as functional. Conditions: A-375, 456 h, time 19 day, read-out: TGI.
In data set [16] the target is Protein arginine N-methyltransferase 1 (Homo sapiens, UniProt Q99873). Description: Inhibition of PRMT1 (unknown origin) using histone H4 (1 to 21 residues) peptide as substrate incubated for 210 mins in presence of SAM by AlphaLISA assay.
Chain of Protein arginine N-methyltransferase 1 (Q99873 whole entry, the tested form may be a part): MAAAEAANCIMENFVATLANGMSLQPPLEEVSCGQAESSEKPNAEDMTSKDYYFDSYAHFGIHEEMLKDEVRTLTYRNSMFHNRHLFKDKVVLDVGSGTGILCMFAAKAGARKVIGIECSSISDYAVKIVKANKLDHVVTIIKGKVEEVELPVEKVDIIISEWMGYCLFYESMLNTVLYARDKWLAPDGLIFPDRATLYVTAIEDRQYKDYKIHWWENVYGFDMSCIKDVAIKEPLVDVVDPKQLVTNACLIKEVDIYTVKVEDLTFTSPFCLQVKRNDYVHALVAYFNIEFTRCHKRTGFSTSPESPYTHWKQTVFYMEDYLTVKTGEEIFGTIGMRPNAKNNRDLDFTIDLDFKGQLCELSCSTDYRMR

Chain of Histone-lysine N-methyltransferase 2A (Q03164 1-2718 limits assumed): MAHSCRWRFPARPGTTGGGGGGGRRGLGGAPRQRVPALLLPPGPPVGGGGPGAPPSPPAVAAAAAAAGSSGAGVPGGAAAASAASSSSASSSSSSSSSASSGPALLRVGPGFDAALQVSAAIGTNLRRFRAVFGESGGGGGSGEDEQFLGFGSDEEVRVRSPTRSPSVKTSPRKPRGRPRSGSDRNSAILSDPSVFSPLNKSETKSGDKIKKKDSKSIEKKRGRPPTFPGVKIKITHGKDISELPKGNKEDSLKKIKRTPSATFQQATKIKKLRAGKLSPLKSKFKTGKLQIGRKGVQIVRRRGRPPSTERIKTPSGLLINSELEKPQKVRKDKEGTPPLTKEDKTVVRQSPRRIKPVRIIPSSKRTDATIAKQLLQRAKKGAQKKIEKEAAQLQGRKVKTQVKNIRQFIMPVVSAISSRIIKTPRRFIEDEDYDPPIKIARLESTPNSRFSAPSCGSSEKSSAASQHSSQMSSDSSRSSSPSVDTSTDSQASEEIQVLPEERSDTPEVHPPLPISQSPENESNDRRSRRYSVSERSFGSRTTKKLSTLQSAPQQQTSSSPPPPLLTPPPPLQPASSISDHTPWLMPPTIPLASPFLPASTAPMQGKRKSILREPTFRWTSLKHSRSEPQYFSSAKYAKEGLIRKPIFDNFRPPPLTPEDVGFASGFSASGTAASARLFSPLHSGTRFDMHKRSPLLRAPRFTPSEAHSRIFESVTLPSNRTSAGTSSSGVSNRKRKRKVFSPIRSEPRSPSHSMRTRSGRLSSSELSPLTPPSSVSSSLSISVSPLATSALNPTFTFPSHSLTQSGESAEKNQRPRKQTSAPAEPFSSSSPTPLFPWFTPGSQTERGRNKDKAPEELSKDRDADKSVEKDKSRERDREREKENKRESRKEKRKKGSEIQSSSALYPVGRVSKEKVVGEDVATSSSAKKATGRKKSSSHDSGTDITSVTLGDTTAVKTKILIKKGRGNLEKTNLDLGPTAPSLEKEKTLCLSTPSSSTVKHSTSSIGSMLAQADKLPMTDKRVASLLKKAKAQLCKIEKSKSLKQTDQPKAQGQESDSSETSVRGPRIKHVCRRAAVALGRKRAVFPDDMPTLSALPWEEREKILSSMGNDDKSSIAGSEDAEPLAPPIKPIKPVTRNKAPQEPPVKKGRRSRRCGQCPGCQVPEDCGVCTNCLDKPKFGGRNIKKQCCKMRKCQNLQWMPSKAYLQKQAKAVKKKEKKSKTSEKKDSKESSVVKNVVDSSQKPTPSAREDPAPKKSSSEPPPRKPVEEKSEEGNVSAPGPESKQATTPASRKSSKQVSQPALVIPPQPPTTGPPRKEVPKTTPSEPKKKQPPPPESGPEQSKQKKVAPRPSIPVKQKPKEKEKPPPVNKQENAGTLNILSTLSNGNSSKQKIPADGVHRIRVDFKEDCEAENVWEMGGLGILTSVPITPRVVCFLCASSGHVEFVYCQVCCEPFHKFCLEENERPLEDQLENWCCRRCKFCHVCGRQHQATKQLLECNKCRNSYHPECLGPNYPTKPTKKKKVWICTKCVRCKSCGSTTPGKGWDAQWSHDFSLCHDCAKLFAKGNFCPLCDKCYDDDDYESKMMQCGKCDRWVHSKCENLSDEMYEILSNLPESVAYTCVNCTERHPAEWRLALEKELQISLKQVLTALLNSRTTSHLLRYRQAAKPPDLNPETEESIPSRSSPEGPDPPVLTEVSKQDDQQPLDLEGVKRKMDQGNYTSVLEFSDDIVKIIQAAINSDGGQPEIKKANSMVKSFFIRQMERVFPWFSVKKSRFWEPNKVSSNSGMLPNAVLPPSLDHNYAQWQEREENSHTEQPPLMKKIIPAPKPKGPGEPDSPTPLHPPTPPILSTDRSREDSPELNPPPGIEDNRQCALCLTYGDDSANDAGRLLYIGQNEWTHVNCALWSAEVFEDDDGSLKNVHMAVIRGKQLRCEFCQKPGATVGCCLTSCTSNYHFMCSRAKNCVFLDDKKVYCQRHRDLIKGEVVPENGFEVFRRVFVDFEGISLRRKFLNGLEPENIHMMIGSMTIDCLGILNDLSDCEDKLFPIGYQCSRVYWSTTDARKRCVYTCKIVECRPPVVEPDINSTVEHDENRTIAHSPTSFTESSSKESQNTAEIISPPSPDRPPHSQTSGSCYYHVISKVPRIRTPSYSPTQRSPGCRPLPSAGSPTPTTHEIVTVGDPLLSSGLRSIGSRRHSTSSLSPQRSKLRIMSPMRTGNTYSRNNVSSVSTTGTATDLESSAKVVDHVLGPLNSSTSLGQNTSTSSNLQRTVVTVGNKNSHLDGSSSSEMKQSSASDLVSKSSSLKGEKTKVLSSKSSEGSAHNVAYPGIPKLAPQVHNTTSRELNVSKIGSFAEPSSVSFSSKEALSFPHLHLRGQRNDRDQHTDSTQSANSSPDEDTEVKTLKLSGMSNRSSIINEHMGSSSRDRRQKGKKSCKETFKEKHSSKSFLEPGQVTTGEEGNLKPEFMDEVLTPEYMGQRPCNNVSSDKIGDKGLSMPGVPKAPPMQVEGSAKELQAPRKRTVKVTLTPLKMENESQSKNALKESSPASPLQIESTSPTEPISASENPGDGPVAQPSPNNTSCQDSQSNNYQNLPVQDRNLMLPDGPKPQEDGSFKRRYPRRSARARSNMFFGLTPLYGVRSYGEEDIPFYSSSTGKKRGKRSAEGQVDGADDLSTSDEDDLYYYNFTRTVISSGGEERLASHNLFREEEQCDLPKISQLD
Chain of Histone-lysine N-methyltransferase 2A (Q03164 2719-3969 limits assumed): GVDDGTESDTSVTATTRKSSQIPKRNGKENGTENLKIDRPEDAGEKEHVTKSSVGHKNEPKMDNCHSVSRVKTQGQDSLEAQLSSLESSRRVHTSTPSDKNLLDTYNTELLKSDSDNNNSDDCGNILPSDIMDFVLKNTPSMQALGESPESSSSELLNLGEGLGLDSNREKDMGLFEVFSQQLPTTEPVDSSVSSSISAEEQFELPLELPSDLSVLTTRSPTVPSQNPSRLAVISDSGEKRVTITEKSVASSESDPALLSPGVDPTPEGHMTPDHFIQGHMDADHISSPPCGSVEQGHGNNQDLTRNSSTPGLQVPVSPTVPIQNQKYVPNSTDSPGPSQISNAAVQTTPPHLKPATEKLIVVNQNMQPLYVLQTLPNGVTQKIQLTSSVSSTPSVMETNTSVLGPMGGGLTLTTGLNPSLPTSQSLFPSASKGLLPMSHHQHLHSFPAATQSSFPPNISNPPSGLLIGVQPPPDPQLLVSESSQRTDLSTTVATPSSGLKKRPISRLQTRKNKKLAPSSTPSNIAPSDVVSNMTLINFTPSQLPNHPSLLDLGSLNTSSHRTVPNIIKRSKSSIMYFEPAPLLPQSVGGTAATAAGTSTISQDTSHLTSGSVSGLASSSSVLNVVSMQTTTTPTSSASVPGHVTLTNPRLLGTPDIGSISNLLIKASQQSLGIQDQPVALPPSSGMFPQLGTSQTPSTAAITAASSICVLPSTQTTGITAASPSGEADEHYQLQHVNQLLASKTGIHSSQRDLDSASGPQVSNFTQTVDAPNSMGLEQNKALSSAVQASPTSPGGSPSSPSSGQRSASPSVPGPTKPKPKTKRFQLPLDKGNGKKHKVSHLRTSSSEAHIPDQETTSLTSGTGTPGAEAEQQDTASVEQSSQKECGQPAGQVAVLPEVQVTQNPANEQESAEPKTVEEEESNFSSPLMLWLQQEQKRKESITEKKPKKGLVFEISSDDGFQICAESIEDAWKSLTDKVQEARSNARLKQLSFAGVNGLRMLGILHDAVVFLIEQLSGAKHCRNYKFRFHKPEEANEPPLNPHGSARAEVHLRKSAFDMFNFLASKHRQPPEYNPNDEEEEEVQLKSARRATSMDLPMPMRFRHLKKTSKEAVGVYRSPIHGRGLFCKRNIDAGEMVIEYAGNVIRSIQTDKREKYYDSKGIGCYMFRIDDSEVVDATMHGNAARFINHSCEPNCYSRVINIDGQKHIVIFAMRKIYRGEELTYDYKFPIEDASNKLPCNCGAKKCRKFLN

For `C[C@H](Oc1ccc(-c2cc3c(C4=CCNCC4)ncnc3[nH]2)cc1)c1ccccc1`, the results for the CLH in data set [1] and in [6] were 30.7 mL/min/g and 227 mL/min/g, respectively. For the same compound, the IC50 in data set [2] was 0.047 µM; in data set [5], above 20 µM; in [16], 3.25 µM. In addition, the half-life in data set [3] was 68.4 min; in data set [9] it was 41.8 min; in data set [11] it was 451 min; in data set [14] it was 9.25 min. The results for the Activity in the data set with A-375 [4] and in the data set on A-375 [13] were 14.14% and 5.58%, respectively. In data set [7], this compound gave an AUC of 65.3 h/ng/mL. The compound also displayed a Cmax in data set [8] of 8.22 ng/mL. Moreover, the fraction unbound in [10] is 0.003; in data set [12], 0.014. Further, the inhibition in vivo at 75 mg/kg in the data set on A-375 [15] came to 73%.
